# According to ChEMBL document CHEMBL3132818, “Heterocycle-fused lupane triterpenoids inhibit Leishmania donovani amastigotes” (Medchemcomm, 2014):
# How the values were obtained:
# Leishmania donovani [1] = experiment: Antileishmanial activity against axenic amastigote stage of Leishmania donovani MHOM/SD/1962/1S-Cl2d assessed as parasite growth inhibition at 50 uM after 24 hrs by AlamarBlue assay (reference value: 0.0 +/- 4.6%); type: functional; details: read-out: GI
# Leishmania donovani [2] = experiment: Antileishmanial activity against axenic amastigote stage of Leishmania donovani MHOM/SD/1962/1S-Cl2d assessed as parasite growth inhibition at 5 uM after 24 hrs by AlamarBlue assay (reference value: 0.0 +/- 0.9%); type: functional; details: read-out: GI
# Leishmania donovani [3] = experiment: Antileishmanial activity against axenic amastigote stage of Leishmania donovani MHOM/SD/1962/1S-Cl2d assessed as parasite growth inhibition after 24 hrs by AlamarBlue assay; type: functional, organism-based
# Leishmania donovani [4] = experiment: Antileishmanial activity against axenic amastigote stage of Leishmania donovani MHOM/SD/1962/1S-Cl2d assessed as parasite growth inhibition at 15 uM after 24 hrs by AlamarBlue assay (reference value: 1.5 +/- 3.8%); type: functional; details: read-out: GI
# Leishmania donovani [5] = experiment: Antileishmanial activity against intracellular amastigote stage of Leishmania donovani infected in human THP1 cells assessed as parasite growth inhibition at 5 uM after 48 hrs by luciferase reporter gene assay relative to control; type: functional; details: THP-1, 48 h, read-out: GI
# THP-1 = experiment: Cytotoxicity against human THP1 cells assessed as cell viability after 48 hrs by AlamarBlue assay; type: cell-based; details: THP-1, 48 h
# [6] = Selectivity index, ratio of IC50 for human THP1 cells to IC50 for axenic amastigote stage of Leishmania donovani MHOM/SD/1962/1S-Cl2d; type: toxicity, cell-based, THP-1; details: read-out: Ratio IC50
# Leishmania donovani [7] = experiment: Antileishmanial activity against intracellular amastigote stage of Leishmania donovani infected in human THP1 cells assessed as parasite growth inhibition at 1 uM after 48 hrs by luciferase reporter gene assay relative to control; type: functional; details: THP-1, 48 h, read-out: GI
# Leishmania donovani [8] = experiment: Antileishmanial activity against axenic amastigote stage of Leishmania donovani MHOM/SD/1962/1S-Cl2d assessed as parasite growth inhibition at 1 uM after 24 hrs by AlamarBlue assay relative to control; type: functional; details: read-out: GI
SMILES,inhibition of growth at 50 µM (Leishmania donovani [1]),inhibition of growth at 5 µM (Leishmania donovani [2]),inhibition of growth at 15 µM (Leishmania donovani [4]),further results
C=C(C)[C@@H]1CC[C@]2(C(=O)O)CC[C@]3(C)[C@H](CC[C@@H]4[C@@]5(C)Cc6c[nH]nc6C(C)(C)[C@@H]5CC[C@]43C)[C@@H]12,60.2%,,,
C=C(C)[C@@H]1CC[C@]2(C(=O)O)CC[C@]3(C)[C@H](CC[C@@H]4[C@@]5(C)Cc6nccnc6C(C)(C)[C@@H]5CC[C@]43C)[C@@H]12,92.7%,20.3%,79.7%,IC50 (Leishmania donovani [3]): 13.2 µM
C=C(C)[C@@H]1CC[C@]2(C(N)=O)CC[C@]3(C)[C@H](CC[C@@H]4[C@@]5(C)Cc6nccnc6C(C)(C)[C@@H]5CC[C@]43C)[C@@H]12,94.9%,,35.2%,
C=C(C)[C@@H]1CC[C@]2(C(=O)O)CC[C@]3(C)[C@H](CC[C@@H]4[C@@]5(C)CCC(=O)NC(C)(C)[C@@H]5CC[C@]43C)[C@@H]12,98.2%,52%,75.2%,inhibition of growth at 5 µM (Leishmania donovani [5]): 54%; IC50 (Leishmania donovani [3]): 4.3 µM; IC50 (THP-1): 55.5 µM; selectivity ratio [6]: 12.9
C=C(C)[C@@H]1CC[C@]2(C(=O)O)CC[C@]3(C)[C@H](CC[C@@H]4[C@@]5(C)Cc6cccnc6C(C)(C)[C@@H]5CC[C@]43C)[C@@H]12,87.9%,,25.6%,
C=C(C)[C@@H]1CC[C@]2(C(=O)O)CC[C@]3(C)[C@H](CC[C@@H]4[C@@]5(C)Cc6cnoc6C(C)(C)[C@@H]5CC[C@]43C)[C@@H]12,95.7%,,15.6%,
C=C(C)[C@@H]1CC[C@]2(C(N)=O)CC[C@]3(C)[C@H](CC[C@@H]4[C@@]5(C)Cc6cnoc6C(C)(C)[C@@H]5CC[C@]43C)[C@@H]12,84.3%,,16.7%,
CC(C)[C@@H]1CC[C@]2(C(=O)O)CC[C@]3(C)[C@H](CC[C@@H]4[C@@]5(C)Cc6cnoc6C(C)(C)[C@@H]5CC[C@]43C)[C@@H]12,2.4%,,,
C=C(C)[C@@H]1CC[C@]2(COC(C)=O)CC[C@]3(C)[C@H](CC[C@@H]4[C@@]5(C)Cc6cnoc6C(C)(C)[C@@H]5CC[C@]43C)[C@@H]12,6.1%,,,
C=C(C)[C@@H]1CC[C@]2(C=O)CC[C@]3(C)[C@H](CC[C@@H]4[C@@]5(C)Cc6cnoc6C(C)(C)[C@@H]5CC[C@]43C)[C@@H]12,34.2%,,21.1%,
CC1(C)CC[C@]23CC[C@]4(C)[C@H](CC[C@@H]5[C@@]6(C)Cc7c([nH]c8ccccc78)C(C)(C)[C@@H]6CC[C@]54C)[C@H]2[C@H]1OC3,19.8%,,18.5%,
CC1(C)CC[C@]23CC[C@]4(C)[C@H](CC[C@@H]5[C@@]6(C)Cc7c([nH]c8ccc(F)cc78)C(C)(C)[C@@H]6CC[C@]54C)[C@H]2[C@H]1OC3,6.8%,0.2%,10.2%,
C=C(C)[C@@H]1CC[C@]2(/C=N/O)CC[C@]3(C)[C@H](CC[C@@H]4[C@@]5(C)Cc6nccnc6C(C)(C)[C@@H]5CC[C@]43C)[C@@H]12,2.8%,,,
C=C(C)[C@@H]1CC[C@]2(CO)CC[C@]3(C)[C@H](CC[C@@H]4[C@@]5(C)Cc6cnoc6C(C)(C)[C@@H]5CC[C@]43C)[C@@H]12,56.9%,,,
C=C(C)[C@@H]1CC[C@]2(C(=O)O)CC[C@]3(C)[C@H](CC[C@@H]4[C@@]5(C)Cc6c([nH]c7ccccc67)C(C)(C)[C@@H]5CC[C@]43C)[C@@H]12,23.4%,5%,27.4%,
C=C(C)[C@@H]1CC[C@]2(C(=O)O)CC[C@]3(C)[C@H](CC[C@@H]4[C@@]5(C)Cc6c([nH]c7ccc(OC)cc67)C(C)(C)[C@@H]5CC[C@]43C)[C@@H]12,29.3%,14%,17.5%,
C[C@@H]1[C@H](O)[C@@H](C)/C=C/C=C/C=C/C=C/C=C/C=C/C=C/[C@H](O[C@@H]2O[C@H](C)[C@@H](O)[C@H](N)[C@@H]2O)C[C@@H]2O[C@](O)(C[C@@H](O)C[C@@H](O)[C@H](O)CC[C@@H](O)C[C@@H](O)CC(=O)O[C@H]1C)C[C@H](O)[C@H]2C(=O)O [AMPHOTERICIN B],,,,inhibition of growth at 1 µM (Leishmania donovani [7]): 96.7%; inhibition of growth at 1 µM (Leishmania donovani [8]): 99.9%
C=C(C)[C@@H]1CC[C@]2(C(=O)O)CC[C@]3(C)[C@H](CC[C@@H]4[C@@]5(C)CC[C@H](O)C(C)(C)[C@@H]5CC[C@]43C)[C@@H]12 [BETULINIC ACID],61.1%,,,
C=C(C)[C@@H]1CC[C@]2(C(=O)O)CC[C@]3(C)[C@H](CC[C@@H]4[C@@]5(C)CCC(=O)C(C)(C)[C@@H]5CC[C@]43C)[C@@H]12 [BETUNOLIC ACID],98.6%,,45.9%,
C=C(C)[C@@H]1CC[C@]2(C(=O)O)CC[C@]3(C)[C@H](CC[C@@H]4[C@@]5(C)CC[C@H](OC(=O)CC(C)(C)C(=O)O)C(C)(C)[C@@H]5CC[C@]43C)[C@@H]12 [BEVIRIMAT],100%,59%,69.1%,IC50 (Leishmania donovani [3]): 7.2 µM; IC50 (THP-1): 54 µM; selectivity ratio [6]: 7.5
